Source: US20050124579A1, “Benzyl alcohol derivatives” (priority 2002, published 2005)
Values after ≈ are worked out from the molar mass of the structure shown.

system: Staphylococcus aureus ATCC 6538; assay: Determination of the minimum inhibition concentration (MIC value) in microtitre plates; format: cell-based; conditions: CASO broth, 37° C., 48 hours, optical density at 620 nm; MIC = <20% growth vs growth control
From the text: (§1) Determination of the Minimum Inhibition Concentration (MIC Value) in Microtitre Plates Nutrient Medium: Casein-soy flour-peptone broth for the preparation of the precultures of the test bacteria and yeast. Examples of Test Microbes: Bacteria: Staphylococcus aureus ATCC 6538 • Escherichia coli NCTC 8196 (=EC) Procedure: The test substances are predissolved in dimethyl sulphoxide (DMSO) and tested in a dilution series of 1:2. The bacteria are cultivated overnight in CASO broth and sponged off with 10 ml of 0.85% sodium chloride solution (+0.1% TritonX-100). All of the test microbes are adjusted to a microbial count of 1-5×10^6 CFU/ml with 0.85% sodium chloride solution. The test substances are prepipetted at 8 μl per well into microtitre plates. Prediluted microbial suspensions are diluted 1:100 in CASO broth and added at 192 μl per well to the test substances. The test mixtures are incubated at 37° C. for 48 hours. After incubation, the growth is determined by reference to the clouding of the test mixtures (optical density) at 620 nm in a microplate reader. The minimum inhibition concentration (MIC value) is the concentration of substance at which (compared with the growth control) a significant growth inhibition (<20% growth) of the test microbes is established. One microtitre plate is prepared per test microbe and substance concentration. All of the substances are tested in duplicate.

Row | MIC Staphylococcus aureus [ppm] | SMILES
1 | 60 | C[Si](C)(C)CCCOc1ccc(CO)cc1 [(8)]
2 | 30 | COCCOCCOc1ccc(CO)cc1 [(9)]
3 | 120 | CCCCCCOc1ccc(CO)cc1 [(10)]
4 | 60 | C[Si](C)(C)CCCOc1cccc(CO)c1 [(12)]
5 | 15 | CCCCCCCCOc1cccc(CO)c1 [(14)]
6 | 120 | CCCCCC(C)Oc1cccc(CO)c1 (stereo not drawn) [(15)]
7 | 15 | COc1ccc(OCCC[Si](C)(C)C)c(CO)c1 [(16)]
8 | 120 | COc1ccc(OCCOc2ccccc2)c(CO)c1 [(18)]
9 | 120 | CCCCOc1ccc(OC)cc1CO [(19)]
10 | 60 | CCCCCCOc1ccc(OC)cc1CO [(20)]
11 | 30 | CCCCCCCCOc1ccc(OC)cc1CO [(21)]
12 | 30 | CCCCCCCCOc1ccc(CO)cc1OC [(28)]

Continued, molecule first:

Row | SMILES | MIC Staphylococcus aureus [ppm]
13 | C[Si](C)(C)CCCOc1ccccc1CO [(3)] | 60
14 | C[Si](C)(C)COc1ccccc1CO [(4)] | 120
15 | CCCCCCCCOc1ccccc1CO [(5)] | 60
16 | CCC(CC)Oc1ccccc1CO [(6)] | 120
17 | CCCCCC(C)Oc1ccccc1CO (stereo not drawn) [(7)] | 120
18 | C[Si](C)(COc1cccc(CO)c1)c1ccccc1 [(13)] | 60
19 | COc1ccc(OC[Si](C)(C)C)c(CO)c1 [(17)] | 60
20 | CCC(CC)Oc1ccc(OC)cc1CO [(22)] | 60
21 | CCCCCC(C)Oc1ccc(OC)cc1CO (stereo not drawn) [(23)] | 60
22 | COc1ccc(OC2CCCCC2)c(CO)c1 [(24)] | 60
23 | COc1ccc(OCc2ccccc2)c(CO)c1 [(25)] | 120
24 | CCCCCCCCOc1cccc(OC)c1CO [(26)] | 15
25 | CCCCCCCCOc1c(CO)cccc1OC [(27)] | 30
26 | C=CC[Si](C)(C)COc1ccc(CO)cc1OC[Si](C)(C)CC=C [(29)] | 120
27 | CCCCCCCCOc1ccc(CO)cc1OCCCCCCCC [(30)] | 60
28 | CCCCCCCCCCCCOc1ccc(CO)cc1OCCCCCCCCCCCC [(31)] | 120
29 | CCCCCCCCCCCCOc1ccc(CO)c(OCCCCCCCCCCCC)c1 [(32)] | 60
30 | OCc1ccc(OC2CCCCC2)cc1OC1CCCCC1 [(33)] | 15
31 | CCCCCCCCOc1ccc(OCCCCCCCC)c(CO)c1 [(34)] | 120
32 | CCCCCCCCCCCCOc1ccc(OCCCCCCCCCCCC)c(CO)c1 [(35)] | 60

same assay, conditions: Staphylococcus aureus, ATCC6538; CASO broth, 37° C., 48 hours, optical density at 620 nm; MIC = <20% growth vs growth control

Row | MIC [µg/mL] | SMILES
33 | 15 (≈ 63.5 µM) | CCCCCCCCOc1ccc(CO)cc1 [(11)]

system: Escherichia coli NCTC 8196; assay: as above; format: cell-based; parameters: unit not given here; conditions: CASO broth, 37° C., 48 hours, optical density at 620 nm; MIC = <20% growth vs growth control
From the text: as §1

Row | MIC Escherichia coli | SMILES
34 | 60 | C[Si](C)(C)CCCOc1ccc(CO)cc1 [(8)]
35 | 60 | COCCOCCOc1ccc(CO)cc1 [(9)]
36 | 60 | CCCCCCOc1ccc(CO)cc1 [(10)]
37 | 15 | CCCCCCCCOc1ccc(CO)cc1 [(11)]
38 | 60 | C[Si](C)(C)CCCOc1cccc(CO)c1 [(12)]
39 | 30 | CCCCCCCCOc1cccc(CO)c1 [(14)]
40 | 120 | CCCCCC(C)Oc1cccc(CO)c1 (stereo not drawn) [(15)]
41 | >120 | COc1ccc(OCCC[Si](C)(C)C)c(CO)c1 [(16)]
42 | 60 | COc1ccc(OCCOc2ccccc2)c(CO)c1 [(18)]
43 | 60 | CCCCOc1ccc(OC)cc1CO [(19)]
44 | 60 | CCCCCCOc1ccc(OC)cc1CO [(20)]
45 | 30 | CCCCCCCCOc1ccc(OC)cc1CO [(21)]
46 | 30 | CCCCCCCCOc1ccc(CO)cc1OC [(28)]

The remaining lines, values behind:

Row | SMILES | MIC Escherichia coli
47 | C[Si](C)(C)CCCOc1ccccc1CO [(3)] | >120
48 | C[Si](C)(C)COc1ccccc1CO [(4)] | >120
49 | CCCCCCCCOc1ccccc1CO [(5)] | >120
50 | CCC(CC)Oc1ccccc1CO [(6)] | >120
51 | CCCCCC(C)Oc1ccccc1CO (stereo not drawn) [(7)] | >120
52 | C[Si](C)(COc1cccc(CO)c1)c1ccccc1 [(13)] | >120
53 | COc1ccc(OC[Si](C)(C)C)c(CO)c1 [(17)] | 60
54 | CCC(CC)Oc1ccc(OC)cc1CO [(22)] | 60
55 | CCCCCC(C)Oc1ccc(OC)cc1CO (stereo not drawn) [(23)] | 60
56 | COc1ccc(OC2CCCCC2)c(CO)c1 [(24)] | 60
57 | COc1ccc(OCc2ccccc2)c(CO)c1 [(25)] | 120
58 | CCCCCCCCOc1cccc(OC)c1CO [(26)] | 15
59 | CCCCCCCCOc1c(CO)cccc1OC [(27)] | 60
60 | C=CC[Si](C)(C)COc1ccc(CO)cc1OC[Si](C)(C)CC=C [(29)] | >120
61 | CCCCCCCCOc1ccc(CO)cc1OCCCCCCCC [(30)] | 60
62 | CCCCCCCCCCCCOc1ccc(CO)cc1OCCCCCCCCCCCC [(31)] | >120
63 | CCCCCCCCCCCCOc1ccc(CO)c(OCCCCCCCCCCCC)c1 [(32)] | >120
64 | OCc1ccc(OC2CCCCC2)cc1OC1CCCCC1 [(33)] | >120
65 | CCCCCCCCOc1ccc(OCCCCCCCC)c(CO)c1 [(34)] | 60
66 | CCCCCCCCCCCCOc1ccc(OCCCCCCCCCCCC)c(CO)c1 [(35)] | 120
